Here are results for 13 compounds from paper PMC11990524, “Design and Synthesis of Novel 6-(Substituted phenyl)-[1,3]dioxolo[4′,5′:4,5]benzo[1,2-d]thiazole Compounds as Tyrosinase Inhibitors: In Vitro and In Vivo Insights” (Molecules, 2025).

Read-outs that look alike come from different tables or passages of the source.

A short description of assay [1]: DPPH radical scavenging assay. As to conditions: 500 μM; 30 min in the dark. As to the method:
DPPH radical scavenging activity was determined by mixing the DPPH solution with compounds 1–13, leaving it in the dark at 20 °C for 30 min, and measuring the optical density at 517 nm. Ascorbic acid (AA) was used as a positive control to compare the scavenging activity. All test samples were used at 500 μM.
An aliquot (20 μL) of test sample (compounds 1–13 and ascorbic acid [positive control]; 5 mM) in DMSO and 180 μL DPPH solution (0.2 mM) in methanol were mixed in each well of a 96-well plate. The mixed solution was kept in the dark at 18 °C for 30 min. A VE microplate reader was used to measure the optical density of each well at 517 nm.
(In general: Loss of DPPH colour is used to gauge radical scavenging.)

Assay [2] can be described thus: ABTS radical scavenging assay. As to conditions: 100 μM. As to the method:
The ABTS^+ radical solution was obtained by mixing ABTS and potassium persulfate, an oxidizing reagent, and test samples (1–13 and Trolox [positive control]; final concentration: 100 μM) were added to determine their ABTS^+ radical scavenging ability by measuring the optical density at 732 nm.
To prepare ABTS^•+ stock solution, equal amounts of ABTS (14 mM aqueous solution) and K2S2O8 (4.9 mM aqueous solution) were mixed and stored in the dark at 18 °C for 15 h. The prepared ABTS^•+ solution was diluted in ethanol to adjust the absorbance to 0.7 ± 0.01 at 732 nm. The test samples (Trolox [positive control] and compounds 1–13) were dissolved in a cosolvent of ethanol and DMSO (10:1 [v/v]). The adjusted ABTS^•+ solution (90 μL) and test sample (10 μL) were added to each well of a 96-well plate, and the plate was stored in a dark place at 18 °C for 2 min. The optical density was measured at 732 nm every min for 10 min. The test sample solutions were tested at a final concentration of 100 μM. The percentage of radical scavenging activity was calculated as follows: % Radical scavenging activity = 100 × [(Absc − Abst)/Absc], where Abst and Absc are optical densities of the test sample and control, respectively.

The target in the next assay is mushroom tyrosinase (Agaricus bisporus, UniProt C7FF04). Put plainly: Mushroom tyrosinase inhibitory activity assay (L-dopa or L-tyrosine as substrate). In kind it is biochemical. The settings on record: 50 μM, read-out: Inhibition (%, Mean ± SEM) at 50 μM (converted). On the procedure: In the inhibition experiments, L-dopa and L-tyrosine were used as enzyme substrates.
The plate was incubated at 37 °C for 30 min, and absorbance of dopachrome formation was recorded spectrophotometrically at 475 nm using a VersaMax® Elisa (VE) microplate reader (Molecular Devices, San Jose, CA, USA) to determine tyrosinase inhibition activity. A VE microplate reader was used in all subsequent experiments to measure optical density. All experiments were carried out independently three times.

mushroom tyrosinase, sequence (C7FF04 2-392): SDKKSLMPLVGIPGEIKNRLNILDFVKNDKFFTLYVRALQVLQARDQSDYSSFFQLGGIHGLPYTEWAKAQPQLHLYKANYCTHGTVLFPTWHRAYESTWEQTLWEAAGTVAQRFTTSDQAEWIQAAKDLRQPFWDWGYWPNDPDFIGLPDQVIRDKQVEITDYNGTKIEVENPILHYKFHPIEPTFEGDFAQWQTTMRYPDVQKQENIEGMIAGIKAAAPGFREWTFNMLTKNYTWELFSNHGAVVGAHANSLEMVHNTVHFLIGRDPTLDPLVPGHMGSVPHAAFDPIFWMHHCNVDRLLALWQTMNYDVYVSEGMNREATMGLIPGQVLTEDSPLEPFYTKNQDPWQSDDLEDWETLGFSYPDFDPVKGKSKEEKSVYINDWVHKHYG

With `O=C1O[C@H]([C@@H](O)CO)C(O)=C1O` [AA, Ascorbic acid, reference compound], the “DPPH radical scavenging (inhibition)” value in assay [1] was 96%.

With `COc1cc(-c2nc3cc4c(cc3s2)OCO4)ccc1O` [Compound 1, 4-([1,3]Dioxolo[4′,5′:4,5]benzo[1,2-d]thiazol-6-yl)-2-methoxyphenol], the “ABTS^+ radical scavenging activity (inhibition rate)” value in assay [2] was greater than 77%. Further, the inhibition – broadly, the drop in the measured response relative to a control, in per cent – at 50 µM at mushroom tyrosinase (substrate L-dopa) was 1.7%; on mushroom tyrosinase (substrate L-tyrosine) it was 25.9%.

As to `CCOc1cc(-c2nc3cc4c(cc3s2)OCO4)ccc1O` [Compound 2, 4-([1,3]Dioxolo[4′,5′:4,5]benzo[1,2-d]thiazol-6-yl)-2-ethoxyphenol], in assay [2], the “ABTS^+ radical scavenging activity (inhibition rate)” value was greater than 77%. Moreover, the inhibition at 50 µM on mushroom tyrosinase (substrate L-dopa) is 50.3%; at mushroom tyrosinase (substrate L-tyrosine), 14.9%.

With `COc1ccc(-c2nc3cc4c(cc3s2)OCO4)cc1` [Compound 3, 6-(4-Methoxyphenyl)-[1,3]dioxolo[4′,5′:4,5]benzo[1,2-d]thiazole], the inhibition at 50 µM was 17.2% on mushroom tyrosinase (substrate L-dopa) and 11.1% at mushroom tyrosinase (substrate L-tyrosine).

In the case of `COc1ccc(-c2nc3cc4c(cc3s2)OCO4)cc1O` [Compound 4, 5-([1,3]Dioxolo[4′,5′:4,5]benzo[1,2-d]thiazol-6-yl)-2-methoxyphenol], the “ABTS^+ radical scavenging activity (inhibition rate)” value in assay [2] is given as greater than 77%. Besides, the inhibition at 50 µM is 63% on mushroom tyrosinase (substrate L-dopa) and 25.5% at mushroom tyrosinase (substrate L-tyrosine).

Regarding `Oc1ccc(-c2nc3cc4c(cc3s2)OCO4)cc1Br` [Compound 6, 4-([1,3]Dioxolo[4′,5′:4,5]benzo[1,2-d]thiazol-6-yl)-2-bromophenol], the inhibition at 50 µM on mushroom tyrosinase (substrate L-dopa) was 27.9%; at mushroom tyrosinase (substrate L-tyrosine), 17%.

Turning to `Oc1c(Br)cc(-c2nc3cc4c(cc3s2)OCO4)cc1Br` [Compound 7, 4-([1,3]Dioxolo[4′,5′:4,5]benzo[1,2-d]thiazol-6-yl)-2,6-dibromophenol], the inhibition at 50 µM on mushroom tyrosinase (substrate L-dopa) is 29.7%; at mushroom tyrosinase (substrate L-tyrosine) it was 17.7%.

With `Oc1ccc(-c2nc3cc4c(cc3s2)OCO4)cc1O` [Compound 8, 4-([1,3]Dioxolo[4′,5′:4,5]benzo[1,2-d]thiazol-6-yl)benzene-1,2-diol], the “DPPH radical scavenging (inhibition)” value in assay [1] was determined as 82%. Besides, the “ABTS^+ radical scavenging activity (inhibition rate)” value in assay [2] was 99%. Further, the inhibition at 50 µM was 18.6% on mushroom tyrosinase (substrate L-dopa) and 4.95% at mushroom tyrosinase (substrate L-tyrosine).

As to `COc1cc(-c2nc3cc4c(cc3s2)OCO4)cc(OC)c1O` [Compound 10, 4-([1,3]Dioxolo[4′,5′:4,5]benzo[1,2-d]thiazol-6-yl)-2,6-dimethoxyphenol], in assay [2], the “ABTS^+ radical scavenging activity (inhibition rate)” value is 96%. The inhibition at 50 µM on mushroom tyrosinase (substrate L-dopa) was 53.2%; at mushroom tyrosinase (substrate L-tyrosine), 0.54%.

Take `COc1ccc(-c2nc3cc4c(cc3s2)OCO4)cc1OC` [Compound 11, 6-(3,4-Dimethoxyphenyl)-[1,3]dioxolo[4′,5′:4,5]benzo[1,2-d]thiazole]: the results for the inhibition at 50 µM at mushroom tyrosinase (substrate L-dopa) and at mushroom tyrosinase (substrate L-tyrosine) were 19.5% and 0.82%, respectively.

For the compound `COc1ccc(-c2nc3cc4c(cc3s2)OCO4)c(OC)c1` [Compound 12, 6-(2,4-Dimethoxyphenyl)-[1,3]dioxolo[4′,5′:4,5]benzo[1,2-d]thiazole], the inhibition at 50 µM at mushroom tyrosinase (substrate L-dopa) is 32.8%; at mushroom tyrosinase (substrate L-tyrosine), 10.6%.

`COc1cc(-c2nc3cc4c(cc3s2)OCO4)cc(OC)c1OC` [Compound 13, 6-(3,4,5-Trimethoxyphenyl)-[1,3]dioxolo[4′,5′:4,5]benzo[1,2-d]thiazole]: the inhibition at 50 µM was 5% at mushroom tyrosinase (substrate L-dopa) and 16.6% on mushroom tyrosinase (substrate L-tyrosine).

Consider `Cc1c(C)c2c(c(C)c1O)CCC(C)(C(=O)O)O2` (stereo not drawn) [Trolox, reference compound], for which, in assay [2], the “ABTS^+ radical scavenging activity (inhibition rate)” value was determined as 99%.
